According to patent US6867305B2, “Synthesis of epothilones, intermediates thereto and analogues thereof” (Sloan-Kettering Institute for Cancer Research, priority 1996, dated 2005):

Test system: SK-OV-3 ovary adenocarcinoma xenograft
Assay: Human tumor xenograft in nude mice
Assay type: in vivo
Outline: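 Male athymic nu/nu mice bearing s.c. flank tumours from 5×10^6 cells or 30-50 mg tissue; dosing began at 35-200 mm^3 as 6 hr tail-vein i.v. infusion every other day ×5 unless otherwise indicated. Caliper tumour volume, body weight and lethality recorded every other day; 3-5 mice per group.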

[1] = SK-OV-3, dEpoB 30 mg/kg, Taxol 15 mg/kg, Q2Dx6, 6-hr i.v. infusion

C/C1=C/C[C@@H](/C(C)=C/c2csc(C)n2)OC(=O)C[C@H](O)C(C)(C)C(=O)[C@H](C)[C@@H](O)[C@@H](C)CCC1 [dEpoB, 12,13-desoxyepothilone B]
Therapeutic Effect Rank Order (SK-OV-3, i.v. infusion): Taxol>>dEpoB | Therapeutic Effect Rank Order (SK-OV-3, i.v. or i.p., ref 19 (Table 6)): dEpoB≈Taxol | Therapeutic Effects dEpoB vs Taxol (SK-OV-3, dEpoB 30 mg/kg, Taxol 15 mg/kg, Q2Dx6): << | Lowest Average Tumor Size (T/C) [1]: 0.17 | Tumor Disappearance [1]: 0/3
